Results reported in patent publication US20240425497A1, “Cbl-b Inhibitors and Methods of Use Thereof” (ARCUS BIOSCIENCES, INC., priority 2023, published 2024).

Experiments:
Jurkat cells = assay: IL-2 secretion assay in CD3/CD28-activated Jurkat cells (AlphaLISA); format: cell-based, human; details: CD3/CD28 activation, 24 h
Method in brief: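 Jurkat cells in Opti-MEM (50,000/well) preincubated 1 h at 37° C with compound (16-point 1:2 dilution, final 10 μM to […]), then activated with CD3/CD28 T cell activator for 24 h at 37° C. Secreted IL-2 in supernatant quantified by AlphaLISA; EC50 from 4-parameter logistic fit.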

Cbl-b = Cbl-b (Homo sapiens (Human), UniProt Q13191); assay: Cbl-b probe displacement HTRF binding assay; details: 0.4 nM biotinylated Cbl-b, 150 nM BODIPY probe
Method in brief: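 Biotinylated Cbl-b (0.4 nM final) was preincubated 60 min at room temperature with compound (20-point 1:2 series, top 10 μM final), then BODIPY probe (150 nM final) was added for 15 min before streptavidin-terbium cryptate. Buffer was 20 mM Hepes, 150 mM NaCl, 0.01% Triton X-100, 0.5 mM TCEP, 0.01% BSA; IC50 was derived from a four-parameter fit of HTRF signal loss.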

Chain of Cbl-b (Q13191 whole entry, species assumed): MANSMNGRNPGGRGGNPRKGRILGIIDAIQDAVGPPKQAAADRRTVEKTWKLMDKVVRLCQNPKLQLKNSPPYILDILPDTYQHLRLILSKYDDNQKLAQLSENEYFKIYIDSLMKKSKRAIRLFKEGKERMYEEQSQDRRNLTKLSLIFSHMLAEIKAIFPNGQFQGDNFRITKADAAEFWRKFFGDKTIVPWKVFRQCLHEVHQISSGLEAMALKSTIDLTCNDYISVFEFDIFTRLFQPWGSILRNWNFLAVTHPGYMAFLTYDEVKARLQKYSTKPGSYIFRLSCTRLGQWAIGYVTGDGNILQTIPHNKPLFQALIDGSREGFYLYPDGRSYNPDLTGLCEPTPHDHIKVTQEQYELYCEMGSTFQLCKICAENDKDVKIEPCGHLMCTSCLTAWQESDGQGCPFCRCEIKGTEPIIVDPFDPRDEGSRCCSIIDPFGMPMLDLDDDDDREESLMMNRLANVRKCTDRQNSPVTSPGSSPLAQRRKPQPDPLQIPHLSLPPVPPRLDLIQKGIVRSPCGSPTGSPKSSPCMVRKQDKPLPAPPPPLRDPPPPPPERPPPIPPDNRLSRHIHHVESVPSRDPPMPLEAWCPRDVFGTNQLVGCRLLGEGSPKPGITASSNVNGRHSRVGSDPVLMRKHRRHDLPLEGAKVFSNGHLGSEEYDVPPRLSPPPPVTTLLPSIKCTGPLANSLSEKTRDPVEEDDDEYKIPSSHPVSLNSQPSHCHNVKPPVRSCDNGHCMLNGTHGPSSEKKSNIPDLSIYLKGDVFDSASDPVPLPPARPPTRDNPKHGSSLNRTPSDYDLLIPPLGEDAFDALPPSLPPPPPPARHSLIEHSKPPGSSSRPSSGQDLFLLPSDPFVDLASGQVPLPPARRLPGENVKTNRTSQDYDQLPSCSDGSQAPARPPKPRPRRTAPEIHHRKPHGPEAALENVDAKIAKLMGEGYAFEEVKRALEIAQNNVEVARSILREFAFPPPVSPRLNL

| Compound | EC50 (Jurkat cells; Homo sapiens) | IC50 (Cbl-b) | EC50 (Jurkat cells) |
| --- | --- | --- | --- |
| CNC(=O)c1cc(F)ccc1-c1cc(C2CC2)nc(-n2cc(C3CC3)c3cc(CN4CCC[C@H](C)C4)[nH]c3c2=O)c1 [Example 6, N-methyl2-[2-(2-{[(S)-3-methyl-1-piperidyl]methyl}-4-cyclopropyl-7-oxo-1,6-dihydro-1,6-diaza-6-indenyl)-6-cyclopropyl-4-pyridyl]-5-fluorobenzamide] | 100 to 1000 nM | < 100 nM |  |
| N#Cc1cn(-c2cc(-c3ccc(F)cc3C(=O)N3CC(F)C3)cc(C3CC3)n2)c(=O)c2[nH]c(CO)cc12 [Example 54, 6-(6-cyclopropyl-4-{4-fluoro-2-[(3-fluoro-1-azetidinyl)carbonyl]phenyl}-2-pyridyl)-2-(hydroxymethyl)-7-oxo-1,6-dihydro-1,6-diaza-4-indenecarbonitrile] | 100 to 1000 nM | < 100 nM |  |
| N#Cc1c[nH]c2c(=O)n(-c3cc(-c4ccc(F)cc4C(=O)C4CC(F)C4)cc(C4CC4)n3)cc(C(F)(F)F)c12 (stereo not drawn) [Example 51, 6-[6-cyclopropyl-4-[4-fluoro-2-(3-fluorocyclobutanecarbonyl)phenyl]pyridin-2-yl]-7-oxo-4-(trifluoromethyl)-1H-pyrrolo[2,3-c]pyridine-3-carbonitrile] |  | < 100 nM | 100 to 1000 nM |
| CC1CCCN1C(=O)c1cc(F)ccc1-c1cc(C2CC2)nc(-n2cc(C3CC3)c3cc(CN4CCC[C@H](C)C4)[nH]c3c2=O)c1 (stereo partly drawn) [Example 9, 2-{[(S)-3-methyl-1-piperidyl]methyl}-4-cyclopropyl-6-(6-cyclopropyl-4-{4-fluoro-2-[(2-methyl-1-pyrrolidinyl)carbonyl]phenyl}-2-pyridyl)-1,6-dihydro-1,6-diaza-7-indenone] | > 5000 nM | < 100 nM |  |
| CC(c1cc2ncn(-c3cc(-c4ccc(F)cc4C(=O)N4CC(F)C4)cc(C4CC4)n3)c(=O)c2[nH]1)N1CCO[C@H](C)C1 (stereo partly drawn) [Example 47, 2-{1-[(R)-2-methyl-4-morpholinyl]ethyl}-6-(6-cyclopropyl-4-{4-fluoro-2-[(3-fluoro-1-azetidinyl)carbonyl]phenyl}-2-pyridyl)-1,6-dihydro-1,4,6-triaza-7-indenone] | 100 to 1000 nM | < 100 nM |  |
| CN1CCOCC1c1cc2c(C(F)(F)F)cn(-c3cc(-c4ccc(F)cc4C(=O)N4CC(F)C4)cc(C4CC4)n3)c(=O)c2[nH]1 (racemic) [Example 56, 6-[6-cyclopropyl-4-[4-fluoro-2-(3-fluoroazetidine-1-carbonyl)phenyl]pyridin-2-yl]-2-(4-methylmorpholin-3-yl)-4-(trifluoromethyl)-1H-pyrrolo[2,3-c]pyridin-7-one] | 100 to 1000 nM | < 100 nM |  |
| C[C@H]1CCCN(Cc2cc3c(C4CC4)cn(-c4cc(-c5ccc(F)cc5C(=O)N5CC(F)(F)C5)cc(C5CC5)n4)c(=O)c3[nH]2)C1 [Example 14, 2-{[(S)-3-methyl-1-piperidyl]methyl}-4-cyclopropyl-6-(6-cyclopropyl-4-{2-[(3,3-difluoro-1-azetidinyl)carbonyl]-4-fluorophenyl}-2-pyridyl)-1,6-dihydro-1,6-diaza-7-indenone] | < 100 nM | < 100 nM |  |
| C[C@H]1CCCN(Cc2cc3c(C#N)cn(-c4cc(-c5ccc(F)cc5C(=O)N5CC(F)C5)cc(C(F)(F)F)c4)c(=O)c3[nH]2)C1 [Example 23, 2-{[(S)-3-methyl-1-piperidyl]methyl}-6-{4′-fluoro-2′-[(3-fluoro-1-azetidinyl)carbonyl]-5-(trifluoromethyl)-3-biphenylyl}-7-oxo-1,6-dihydro-1,6-diaza-4-indenecarbonitrile] | 1000 to 5000 nM | 100 to 1000 nM |  |
| COC[C@H](C)NCc1cc2ncn(-c3cc(-c4ccc(F)cc4C(=O)N4CC(F)(F)C4)cc(C4CC4)n3)c(=O)c2[nH]1 [Example 34, 3-[6-cyclopropyl-4-[2-(3,3-difluoroazetidine-1-carbonyl)-4-fluorophenyl]pyridin-2-yl]-6-[[[(2S)-1-methoxypropan-2-yl]amino]methyl]-5H-pyrrolo[3,2-d]pyrimidin-4-one] | < 100 nM | < 100 nM |  |
| C[C@H]1CCCN(Cc2ccc3c(c2)C(=O)N(c2cc(-c4ccc(F)cc4C(=O)N4CC(F)C4)cc(C4CC4)n2)C3)C1 [Example 28, 6-{[(S)-3-methyl-1-piperidyl]methyl}-2-(6-cyclopropyl-4-{4-fluoro-2-[(3-fluoro-1-azetidinyl)carbonyl]phenyl}-2-pyridyl)-1-isoindolinone] | 100 to 1000 nM | < 100 nM |  |
| C[C@H]1CCCN(Cc2cc3c(C#N)cn(-c4cc(-c5cccnc5C(=O)N(C)C)cc(C5CC5)n4)c(=O)c3[nH]2)C1 [Example 20, N,N-dimethyl-2′-(2-{[(S)-3-methyl-1-piperidyl]methyl}-4-cyano-7-oxo-1,6-dihydro-1,6-diaza-6-indenyl)-6′-cyclopropyl-[3,4′-bipyridyl]-2-carboxamide] | 1000 to 5000 nM | 100 to 1000 nM |  |
| N#Cc1c(CO)[nH]c2c(=O)n(-c3cc(-c4ccc(F)cc4C(=O)C4CC(F)C4)cc(C4CC4)n3)cc(C(F)(F)F)c12 (stereo not drawn) [Example 53, 6-[6-cyclopropyl-4-[4-fluoro-2-(3-fluorocyclobutanecarbonyl)phenyl]pyridin-2-yl]-2-(hydroxymethyl)-7-oxo-4-(trifluoromethyl)-1H-pyrrolo[2,3-c]pyridine-3-carbonitrile] | 100 to 1000 nM | < 100 nM |  |
| C[C@H]1CCCN(Cc2cc3c(C#N)cn(-c4cc(-c5c(C(=O)N6CC(F)C6)cnn5C)cc(C5CC5)n4)c(=O)c3[nH]2)C1 [Example 45, 2-{[(S)-3-methyl-1-piperidyl]methyl}-6-(6-cyclopropyl-4-{4-[(3-fluoro-1-azetidinyl)carbonyl]-1-methyl-5-pyrazolyl}-2-pyridyl)-7-oxo-1,6-dihydro-1,6-diaza-4-indenecarbonitrile] | 100 to 1000 nM | < 100 nM |  |
| O=C(c1cc(F)ccc1-c1cc(C2CC2)nc(-n2cnc3cc(CNCCC(F)(F)F)[nH]c3c2=O)c1)N1CC(F)(F)C1 [Example 39, 3-[6-cyclopropyl-4-[2-(3,3-difluoroazetidine-1-carbonyl)-4-fluorophenyl]pyridin-2-yl]-6-[(3,3,3-trifluoropropylamino)methyl]-5H-pyrrolo[3,2-d]pyrimidin-4-one] | < 100 nM | < 100 nM |  |
| C[C@H]1CCCN(Cc2cc3c(C4CC4)cn(-c4cc(-c5ccc(F)cc5C(=O)N5CCCC5)cc(C5CC5)n4)c(=O)c3[nH]2)C1 [Example 4, 2-{[(S)-3-methyl-1-piperidyl]methyl}-4-cyclopropyl-6-(6-cyclopropyl-4-{4-fluoro-2-[(1-pyrrolidinyl)carbonyl]phenyl}-2-pyridyl)-1,6-dihydro-1,6-diaza-7-indenone] | 100 to 1000 nM | < 100 nM |  |
| C[C@H]1CCCN(Cc2cc3c(C4CC4)cn(-c4cc(-c5ccc(F)cc5C(=O)N5CCOCC5)cc(C5CC5)n4)c(=O)c3[nH]2)C1 [Example 3, 2-{[(S)-3-methyl-1-piperidyl]methyl}-4-cyclopropyl-6-[6-cyclopropyl-4-(4-fluoro-2-morpholinocarbonylphenyl)-2-pyridyl]-1,6-dihydro-1,6-diaza-7-indenone] | 100 to 1000 nM | < 100 nM |  |
| C[C@H]1CCCN(Cc2cc3c(C4CC4)cn(-c4cc(-c5ccc(F)cc5C(=O)N5CC(F)C5)nc(C5CC5)n4)c(=O)c3[nH]2)C1 [Example 30, 4-cyclopropyl-6-[2-cyclopropyl-6-[4-fluoro-2-(3-fluoroazetidine-1-carbonyl)phenyl]pyrimidin-4-yl]-2-[[(3S)-3-methylpiperidin-1-yl]methyl]—1H-pyrrolo[2,3-c]pyridin-7-one] | < 100 nM | < 100 nM |  |
| C[C@H]1CCCN(Cc2cc3c(C4CC4)cn(-c4cc(-c5ccc(F)cc5C(N)=O)cc(C5CC5)n4)c(=O)c3[nH]2)C1 [Example 18, 2-[2-(2-{[(S)-3-methyl-1-piperidyl]methyl}-4-cyclopropyl-7-oxo-1,6-dihydro-1,6-diaza-6-indenyl)-6-cyclopropyl-4-pyridyl]-5-fluorobenzamide] | 100 to 1000 nM | 100 to 1000 nM |  |
| Cc1cn(-c2cc(-c3ccc(F)cc3C(=O)N3CC(F)C3)cc(C3CC3)n2)c(=O)c2[nH]c([C@@H]3CCCN3)nc12 [Example 50, 5-[6-cyclopropyl-4-[4-fluoro-2-(3-fluoroazetidine-1-carbonyl)phenyl]pyridin-2-yl]-7-methyl-2-[(2S)-pyrrolidin-2-yl]-3H-imidazo[4,5-c]pyridin-4-one] | > 5000 nM | 100 to 1000 nM |  |
| CC1CCN1C(=O)c1cc(F)ccc1-c1cc(C2CC2)nc(-n2cc(C3CC3)c3cc(CN4CCC[C@H](C)C4)[nH]c3c2=O)c1 (stereo partly drawn) [Example 15, 2-{[(S)-3-methyl-1-piperidyl]methyl}-4-cyclopropyl-6-(6-cyclopropyl-4-{4-fluoro-2-[(2-methyl-1-azetidinyl)carbonyl]phenyl}-2-pyridyl)-1,6-dihydro-1,6-diaza-7-indenone] | 100 to 1000 nM | < 100 nM |  |
| O=C(c1cc(F)ccc1-c1cc(C2CC2)nc(-n2cc(C(F)(F)F)c3cc(CO)[nH]c3c2=O)c1)C1CC(F)C1 (stereo not drawn) [Example 52, 6-[6-cyclopropyl-4-[4-fluoro-2-(3-fluorocyclobutanecarbonyl)phenyl]pyridin-2-yl]-2-(hydroxymethyl)-4-(trifluoromethyl)-1H-pyrrolo[2,3-c]pyridin-7-one] | 100 to 1000 nM | < 100 nM |  |
